# Source: article PMC8619920, “New Polyesterified Ursane Derivatives from Leaves of Maesa membranacea and Their Cytotoxic Activity” (Molecules, 2021)
# Experiments:
# [1] = tested on: Caco-2 human colon adenocarcinoma cells; test: Cytotoxicity, LDH assay, Caco-2 cells; format: cell-based; conditions: 24 h treatment; for IC50: Homo sapiens, Caco-2, 24 h
# Method: (§1) Cytotoxic activity was tested on human cancer and normal cells, grouped in three panels, namely: prostate, skin and gastrointestinal. The prostate panel consisted of prostate cancer cell lines Du145 (ATCC HTB-81) and PC3 (ATCC CRL-1435), and prostate epithelial cells PNT-2 (ECACC 95012613). Melanoma cell lines A375 (ATCC CRL-1619) and HTB140 (ATCC Hs 294T) together with skin keratinocytes HaCaT (obtained as a kind gift of prof. Marta Michalik, Department of Cell Biology, Jagiellonian University, Kraków, Poland) were included into the skin panel. The gastrointestinal panel of cells comprised colon cancer cell lines Caco-2 (ATCC HTB-37) and HT29 (ATCC HTB-38). Du145 cells were grown in Modified Eagle’s Medium with low (1.0 g/L) glucose concentration, HT29, PC3 and PNT-2 cells in Dulbecco’s Modified Eagle’s Media: F12 HAM Nutrient Mixture, Caco-2 in Modified Eagle’s Medium with NEAA (no-essential amino acids) while melanoma cells and keratinocytes were maintained in Modified Eagle’s Medium with high (4.5 g/L) glucose concentration. The culture media (all supplied by Sigma-Aldrich Co.; St. Louis, MO, USA) contained antibiotics and 10% fetal bovine serum (FBS). All cultures were maintained at 37 °C, in a humidified, 5% CO2 containing, atmosphere.
# (§2) The examined triterpenes were diluted in the culture media from freshly made stock solutions in MeOH (10 mg/mL) to the working concentrations (from 0 to 100 μg/mL).
# (§3) Cell viability was determined as it was described previously. Cells suspended in the nutrient medium were transferred into 96-well microtiter plates (density 1.5 × 10^4 per well), and preincubated for 24 h (37 °C, 5% CO2). Then, the culture medium was replaced with the medium containing different concentrations of 1 or 2 (1–100 μg/mL). After 24 h of incubation, viability of the cells was determined using colorimetric lactate dehydrogenase (LDH) assay, in comparison to the controls to which corresponding aliquots of MeOH diluted with culture media were added. Cells grown in the medium without the tested compounds were used as control I (negative) and the positive control (control II) was obtained by incubation of the cells in the medium containing 1% Triton X-100. LDH released from the damaged cells into the cell culture medium was quantified by measuring the absorbance at 490 nm using Synergy II Biotek (BioTek Instruments, Winooski, VT, USA) microplate reader. Cytotoxicities of the examined compounds were calculated as follows: [(absorbance of the tested sample − absorbance of control I)/(absorbance of control II − absorbance of control I)] × 100. Results were means of three independent measurements (± SD). Doxorubicin (Ebewe Pharma GmbH., Unterach, Austria) was used as a reference cytostatic drug. The IC50 values were determined by plotting the percentage viability of the cells versus concentration and the adequate calculations made using AAT Bioquest website program (https://www.aatbio.com/tools/ic50-calculator, accessed on 29 October 2021).
# [2] = Cytotoxicity, LDH assay, Caco-2 cells; format: cell-based, human; conditions: human, Caco-2, 24 h, mean ± SD of three, read-out: Cell viability Caco-2
# Method: as §1, §2, §3
# [3] = Cytotoxicity, LDH assay, A375 cells; format: cell-based, human; conditions: human, A375 malignant melanoma cells, 24 h, mean ± SD of three, read-out: Cell viability A375
# Method: as §1, §2, §3
# [4] = tested on: A375 human malignant melanoma cells; test: Cytotoxicity, LDH assay, A375 cells; format: cell-based; conditions: Homo sapiens, A-375; 24 h treatment, 5–100 μg/mL
# Method: as §1, §2, §3
# [5] = Cytotoxicity, LDH assay, DU145 cells; format: cell-based, human; conditions: human, DU145 prostate carcinoma cells, 24 h, mean ± SD of three, read-out: Cell viability DU145
# Method: as §1, §2, §3
# [6] = tested on: DU145 human prostate carcinoma cells; test: Cytotoxicity, LDH assay, DU145 cells; format: cell-based; conditions: 24 h treatment; for IC50: Homo sapiens, DU-145, 24 h
# Method: as §1, §2, §3
# [7] = Cytotoxicity, LDH assay, PNT-2 cells; format: cell-based, human; conditions: human, 24 h, mean ± SD of three, read-out: Cell viability PNT-2
# Method: as §1, §2, §3
# [8] = tested on: PNT-2 human normal prostate epithelium cells; test: Cytotoxicity, LDH assay, PNT-2 cells; format: cell-based
# Method: as §1, §2, §3
# [9] = Cytotoxicity, LDH assay, HaCaT cells; format: cell-based, human; conditions: human, 24 h, mean ± SD of three, read-out: Cell viability HaCaT
# Method: as §1, §2, §3
# [10] = Cytotoxicity, LDH assay, HT29 cells; format: cell-based, human; conditions: human, HT29 colon adenocarcinoma cells, 24 h, mean ± SD of three, read-out: Cell viability HT29
# Method: as §1, §2, §3
# [11] = tested on: HT29 human colon adenocarcinoma cells; test: Cytotoxicity, LDH assay, HT29 cells; format: cell-based; conditions: Homo sapiens, HT-29; 24 h treatment, 5–100 μg/mL
# Method: as §1, §2, §3
# [12] = Cytotoxicity, LDH assay, HTB140 cells; format: cell-based, human; conditions: human, HTB140 melanoma cells, 24 h, mean ± SD of three, read-out: Cell viability HTB140
# Method: as §1, §2, §3
# [13] = tested on: HTB140 human melanoma cells; test: Cytotoxicity, LDH assay, HTB140 cells; format: cell-based; conditions: Homo sapiens; 24 h treatment, 5–100 μg/mL
# Method: as §1, §2, §3
compound,measurement,setting,value
"CCC(C)C(=O)OC1C=C2C3C(C)C(C)(O)CC(OC(C)=O)C3(C)CCC2(C)C2(C)CC(OC(C)=O)C3C(C)(C)C(O)C(OC(C)=O)CC3(C)C12 (stereo not drawn) [Compound 1, 2α,6β,22α-triacetoxy-11α-(2-methylbutyryloxy)-urs-12-ene-3α,20β-diol]",IC50 Caco-2,[1]; 5–100 μg/mL,35.65 µg/mL
same,IC50,[1]; 5–100 μg/mL,35.7 µg/mL
same,IC50,"[1]; value in brackets, footnote d",49.8 µM
same,"viability at 24 h, 5 μg/mL",[2]; 5 μg/mL,95.55 ± 0.74%
same,"viability at 24 h, 10 μg/mL",[2]; 10 μg/mL,88.7 ± 0.93%
same,"viability at 24 h, 20 μg/mL",[2]; 20 μg/mL,78.5 ± 1.94%
same,"viability at 24 h, 30 μg/mL",[2]; 30 μg/mL,65.9 ± 1.21%
same,"viability at 24 h, 40 μg/mL",[2]; 40 μg/mL,51.1 ± 2.4%
same,"viability at 24 h, 50 μg/mL",[2]; 50 μg/mL,35.8 ± 1.32%
same,"viability at 24 h, 100 μg/mL",[2]; 100 μg/mL,22.2 ± 1.53%
same,"viability at 24 h, 5 μg/mL",[3]; 5 μg/mL,97.23 ± 0.57%
same,"viability at 24 h, 10 μg/mL",[3]; 10 μg/mL,96.44 ± 0.92%
same,"viability at 24 h, 20 μg/mL",[3]; 20 μg/mL,92.8 ± 1.11%
same,"viability at 24 h, 30 μg/mL",[3]; 30 μg/mL,87.2 ± 2.17%
same,"viability at 24 h, 40 μg/mL",[3]; 40 μg/mL,79.8 ± 2.02%
same,"viability at 24 h, 50 μg/mL",[3]; 50 μg/mL,70.2 ± 1.39%
same,"viability at 24 h, 100 μg/mL",[3]; 100 μg/mL,62.6 ± 2.03%
same,IC50,[4],> 100 µg/mL
same,"viability at 24 h, 5 μg/mL",[5]; 5 μg/mL,93.19 ± 0.93%
same,"viability at 24 h, 10 μg/mL",[5]; 10 μg/mL,83.1 ± 1.96%
same,"viability at 24 h, 20 μg/mL",[5]; 20 μg/mL,70.4 ± 1.69%
same,"viability at 24 h, 30 μg/mL",[5]; 30 μg/mL,57.2 ± 2.2%
same,"viability at 24 h, 40 μg/mL",[5]; 40 μg/mL,41.3 ± 1.91%
same,"viability at 24 h, 50 μg/mL",[5]; 50 μg/mL,27.2 ± 2.28%
same,"viability at 24 h, 100 μg/mL",[5]; 100 μg/mL,9.87 ± 1.59%
same,IC50 DU145,[6]; 5–100 μg/mL,35.83 µg/mL
same,IC50,[6]; 5–100 μg/mL,35.8 µg/mL
same,IC50,"[6]; value in brackets, footnote d",50 µM
same,"viability at 24 h, 10 μg/mL","[7]; PNT-2 normal prostate epithelium cells, 10 μg/mL",96.77 ± 0.6%
same,"viability at 24 h, 100 μg/mL","[7]; PNT-2 normal prostate epithelium cells, 100 μg/mL",59 ± 2.2%
same,"viability at 24 h, 5 μg/mL","[7]; PNT-2 prostate epithelial cells, 5 μg/mL",96.61 ± 0.53%
same,"viability at 24 h, 20 μg/mL","[7]; PNT-2 prostate epithelial cells, 20 μg/mL",94.59 ± 0.9%
same,"viability at 24 h, 30 μg/mL","[7]; PNT-2 prostate epithelial cells, 30 μg/mL",91 ± 1.07%
same,"viability at 24 h, 40 μg/mL","[7]; PNT-2 prostate epithelial cells, 40 μg/mL",83 ± 1.41%
same,"viability at 24 h, 50 μg/mL","[7]; PNT-2 prostate epithelial cells, 50 μg/mL",70.7 ± 2.58%
same,Reduction of viability of PNT-2 cells,[8]; 100 µg/mL,41%
same,IC50,"[8]; Homo sapiens, PNT2, 24 h treatment, 5–100 μg/mL",> 100 µg/mL
same,"viability at 24 h, 100 μg/mL","[9]; HaCaT immortalized keratinocytes, 100 μg/mL",56.8 ± 2.2%
same,"viability at 24 h, 5 μg/mL","[9]; HaCaT keratinocytes, 5 μg/mL",96.52 ± 0.8%
same,"viability at 24 h, 10 μg/mL","[9]; HaCaT keratinocytes, 10 μg/mL",94.9 ± 1%
same,"viability at 24 h, 20 μg/mL","[9]; HaCaT keratinocytes, 20 μg/mL",88.37 ± 0.47%
same,"viability at 24 h, 30 μg/mL","[9]; HaCaT keratinocytes, 30 μg/mL",81.2 ± 1.77%
same,"viability at 24 h, 40 μg/mL","[9]; HaCaT keratinocytes, 40 μg/mL",74 ± 1.72%
same,"viability at 24 h, 50 μg/mL","[9]; HaCaT keratinocytes, 50 μg/mL",65.7 ± 1.22%
same,"viability at 24 h, 5 μg/mL",[10]; 5 μg/mL,97.04 ± 0.42%
same,"viability at 24 h, 10 μg/mL",[10]; 10 μg/mL,95.49 ± 0.82%
same,"viability at 24 h, 20 μg/mL",[10]; 20 μg/mL,90.9 ± 1.37%
same,"viability at 24 h, 30 μg/mL",[10]; 30 μg/mL,81.5 ± 1.89%
same,"viability at 24 h, 40 μg/mL",[10]; 40 μg/mL,72.5 ± 1.94%
same,"viability at 24 h, 50 μg/mL",[10]; 50 μg/mL,64.8 ± 1.69%
same,"viability at 24 h, 100 μg/mL",[10]; 100 μg/mL,55.2 ± 1.73%
same,IC50,[11],> 100 µg/mL
same,"viability at 24 h, 5 μg/mL",[12]; 5 μg/mL,96.2 ± 1.12%
same,"viability at 24 h, 10 μg/mL",[12]; 10 μg/mL,93.82 ± 0.73%
same,"viability at 24 h, 20 μg/mL",[12]; 20 μg/mL,87.1 ± 2.09%
same,"viability at 24 h, 30 μg/mL",[12]; 30 μg/mL,78.9 ± 2.08%
same,"viability at 24 h, 40 μg/mL",[12]; 40 μg/mL,68.4 ± 2.17%
same,"viability at 24 h, 50 μg/mL",[12]; 50 μg/mL,59.5 ± 1.4%
same,"viability at 24 h, 100 μg/mL",[12]; 100 μg/mL,46.6 ± 2.09%
same,IC50,[13],> 50 µg/mL
